Data published in paper PMC5814047, “Peptidic inhibitors of insulin-degrading enzyme with potential for dermatological applications discovered via phage display” (PLoS ONE, 2018).
Like-named read-outs stand apart in the source and are kept apart here. Bridge positions count the residues as written; N and C are the ends. Ends that are not written are not given here. Peptide text beside a SMILES is read from it.

Tests used:
IDE [1] = target: T1, IDE (Homo sapiens, UniProt P14735); test: biochemical; conditions: for IC50 <500 uM?: initial test at 500 uM; for IC50: FRET1, listed in Table 1, read-out: IC50, summary of results of the initial test; for Ki: substrate FRET1 5 μM, Ki from IC50 with the Cheng-Prusoff equation, read-out: Ki FRET1
T1 construct: made in house; host or cells: bacteria
T1 sequence (P14735 1-1019): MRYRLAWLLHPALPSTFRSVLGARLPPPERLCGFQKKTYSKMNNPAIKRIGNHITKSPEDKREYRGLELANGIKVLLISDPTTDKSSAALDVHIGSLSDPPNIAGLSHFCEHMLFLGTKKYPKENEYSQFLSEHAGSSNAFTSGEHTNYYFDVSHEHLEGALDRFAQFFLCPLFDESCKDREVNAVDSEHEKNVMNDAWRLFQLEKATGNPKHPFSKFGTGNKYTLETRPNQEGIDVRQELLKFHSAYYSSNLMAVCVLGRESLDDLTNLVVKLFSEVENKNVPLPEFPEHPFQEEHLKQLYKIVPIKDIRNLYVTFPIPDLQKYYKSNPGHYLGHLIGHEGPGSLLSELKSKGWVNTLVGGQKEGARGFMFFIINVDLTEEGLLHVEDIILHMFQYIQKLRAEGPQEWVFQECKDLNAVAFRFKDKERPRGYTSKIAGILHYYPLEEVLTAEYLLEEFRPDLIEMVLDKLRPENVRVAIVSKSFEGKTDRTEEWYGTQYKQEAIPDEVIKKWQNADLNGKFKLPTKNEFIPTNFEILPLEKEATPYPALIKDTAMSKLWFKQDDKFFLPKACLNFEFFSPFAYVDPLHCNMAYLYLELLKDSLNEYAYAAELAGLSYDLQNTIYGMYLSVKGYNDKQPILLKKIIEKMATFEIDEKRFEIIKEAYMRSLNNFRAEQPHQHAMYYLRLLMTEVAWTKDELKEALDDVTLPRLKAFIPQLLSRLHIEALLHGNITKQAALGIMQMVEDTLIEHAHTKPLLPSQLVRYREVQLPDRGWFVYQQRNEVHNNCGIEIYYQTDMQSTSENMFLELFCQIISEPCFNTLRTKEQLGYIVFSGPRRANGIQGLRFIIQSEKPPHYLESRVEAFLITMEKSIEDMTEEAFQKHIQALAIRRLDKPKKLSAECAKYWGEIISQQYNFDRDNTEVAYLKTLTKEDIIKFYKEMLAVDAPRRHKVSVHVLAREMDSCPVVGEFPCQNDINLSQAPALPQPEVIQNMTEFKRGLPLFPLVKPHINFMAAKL
Experimental: The six selected peptide sequences (C7C-1, C7C-2, 12–1, 12–2, 12–3 and 12–4) were synthesized, together with a variety of modifications, yielding a total of 25 peptides (Table 1). […] Other modifications included N-terminal acetylation and C-terminal amidation, included to mimic the charge state of the peptides when incorporated in the phage coat protein (Table 1).
IDE activity was quantified by monitoring the degradation of Mca-[…](Dnp) (FRET1, 5 μM), fluoresceinated and biotinylated amyloid ß-protein (FAßB; 500 nM) or recombinant human insulin (50 nM) in PBS supplemented with 0.05% BSA. […] In vitro activity assays incorporated recombinant human IDE (1 nM) purified from bacteria. For quantitation of insulin degradation in primary murine skin fibroblasts, cells (1 x 10^5/well) were plated in 96-well plates and maintained in DMEM supplemented with 10% fetal bovine serum (FBS), 2mM glutamine, penicillin and streptomycin. After addition of insulin (10 nM or 100 nM), samples of conditioned medium were removed daily and quickly frozen, then insulin levels were quantified in parallel by ELISA according to manufacturer’s recommendations (Crystal Chem, Downers Grove, IL, USA). Assessment of the activity of P12-3A against a variety of matrix-metalloproteases was conducted using the Matrix Metalloproteinase (MMP) Inhibitor Profiling Kit, Fluorometric RED (Enzo Life Sciences, Inc., Farmingdale, NY, USA) according to manufacturer’s recommendations using the broad-spectrum MMP inhibitor, NNGH, as a positive control.

IDE [2] = target: T1, IDE; test: biochemical; conditions: for IC50: from initial test at 10 uM using insulin (100 nM), read-out: IC50 (summary of results, listed in Table 1); for Ki: substrate recombinant human insulin 50 nM, Ki from IC50 with the Cheng-Prusoff equation
Description: The six selected peptide sequences (C7C-1, C7C-2, 12–1, 12–2, 12–3 and 12–4) were synthesized, together with a variety of modifications, yielding a total of 25 peptides (Table 1). For the 12-mer peptides, we synthesized variants of the parent peptides truncated at one or both termini, to test whether the entire sequence was necessary or not, in the hope that shorter, and thus less expensive, sequences might be effective. Other modifications included N-terminal acetylation and C-terminal amidation, included to mimic the charge state of the peptides when incorporated in the phage coat protein (Table 1). To assess the extent to which these peptide sequences inhibit IDE, we quantified their potency in protease activity assays using recombinant human IDE and two different substrates: FRET1, a fluorogenic peptide, and recombinant human insulin.
IDE activity was quantified by monitoring the degradation of Mca-[…](Dnp) (FRET1, 5 μM), fluoresceinated and biotinylated amyloid ß-protein (FAßB; 500 nM) or recombinant human insulin (50 nM) in PBS supplemented with 0.05% BSA. FRET1 degradation was measured by changes in fluorescence (λex = 340 nm, λem = 420 nm); FAßB degradation was monitored by fluorescence polarization (λex = 488 nm, λem = 525 nm), as described; and insulin degradation was quantified by ELISA. In vitro activity assays incorporated recombinant human IDE (1 nM) purified from bacteria. For quantitation of insulin degradation in primary murine skin fibroblasts, cells (1 x 10^5/well) were plated in 96-well plates and maintained in DMEM supplemented with 10% fetal bovine serum (FBS), 2mM glutamine, penicillin and streptomycin. After addition of insulin (10 nM or 100 nM), samples of conditioned medium were removed daily and quickly frozen, then insulin levels were quantified in parallel by ELISA according to manufacturer’s recommendations (Crystal Chem, Downers Grove, IL, USA). Assessment of the activity of P12-3A against a variety of matrix-metalloproteases was conducted using the Matrix Metalloproteinase (MMP) Inhibitor Profiling Kit, Fluorometric RED (Enzo Life Sciences, Inc., Farmingdale, NY, USA) according to manufacturer’s recommendations using the broad-spectrum MMP inhibitor, NNGH, as a positive control.

[3] = initial test, percent of initial velocity relative to DMSO-only controls, N 4, read-out: Percent activity at 500 uM, Mean
[4] = initial test, percent of initial velocity relative to DMSO-only controls, individual replicates, read-out: Percent activity at 500 uM, Replicate 1-4
[5] = judged as IC50 <100 uM?, N 4, read-out: Percent activity at 500 uM, Mean
[6] = judged as IC50 <100 uM?, individual replicates, read-out: Percent activity at 500 uM, Replicate 1-4

IC50 <500 uM? (IDE [1]) | remaining activity at 500 µM (IDE [1]; [3]) | remaining activity at 500 µM (IDE [1]; [4]) | remaining activity at 500 µM (IDE [1]; [5]) | remaining activity at 500 µM (IDE [1]; [6]) | IC50 <10 uM? (IDE [2]; initial test at 10 uM using insulin (100 nM)) | remaining activity at 0.016 µM (IDE [2]; insulin ELISA, Cmpd 0.016 uM, Runs 1-3, read-out: Percent Activity (normalized source data)) | remaining activity at 0.08 µM (IDE [2]; insulin ELISA, Cmpd 0.08 uM, Runs 1-3, read-out: Percent Activity (normalized source data)) | remaining activity at 0.4 µM (IDE [2]; insulin ELISA, Cmpd 0.4 uM, Runs 1-3, read-out: Percent Activity (normalized source data)) | remaining activity at 2 µM (IDE [2]; insulin ELISA, Cmpd 2 uM, Runs 1-3, read-out: Percent Activity (normalized source data)) | remaining activity at 10 µM (IDE [2]; insulin ELISA, Cmpd 10 uM, Runs 1-3, read-out: Percent Activity (normalized source data)) | IC50 (IDE [2]) | Ki (IDE [2]) | IC50 (IDE [1]) | Ki (IDE [1]) | Molecule
 |  |  |  | 88.8% |  |  |  |  |  |  | > 10 µM | > 10 µM | > 500 µM | > 500 µM | Ac-FPMPSRPH-NH2 [P12-2D]
 |  |  |  | 72.7% |  |  |  |  |  |  | > 10 µM | > 10 µM | > 500 µM | > 500 µM | Ac-MPSRPHSS [P12-2C]
 |  | 74.3% |  | 91.1% |  |  |  |  |  |  | > 10 µM | ≥ 10 µM | > 500 µM | ≥ 500 µM | Ac-PISGKFFQ-NH2 [P12-4D]
 |  | 59.7% |  | 77.6% |  |  |  |  |  |  | > 10 µM | ≥ 10 µM | > 500 µM | ≥ 500 µM | Ac-SGKFFQRF [P12-4C]
 |  | 81.3% |  |  |  |  |  |  |  |  | > 10 µM | > 10 µM | > 500 µM | > 500 µM | LNFPMPSR-NH2 [P12-2B]
YES |  |  |  | 59.9% |  |  |  |  |  |  | > 10 µM | > 10 µM | > 100 µM | > 100 µM | LNFPMPSRPHSS [P12-2]
YES |  | 31.8% |  | 58.5% |  |  |  |  |  |  | > 10 µM | > 10 µM | > 100 µM | > 100 µM | LNFPMPSRPHSS-NH2 [P12-2A]

Continued, molecule first:

Molecule | IC50 <500 uM? (IDE [1]) | remaining activity at 500 µM (IDE [1]; [3]) | remaining activity at 500 µM (IDE [1]; [4]) | remaining activity at 500 µM (IDE [1]; [5]) | remaining activity at 500 µM (IDE [1]; [6]) | IC50 <10 uM? (IDE [2]; initial test at 10 uM using insulin (100 nM)) | remaining activity at 0.016 µM (IDE [2]; insulin ELISA, Cmpd 0.016 uM, Runs 1-3, read-out: Percent Activity (normalized source data)) | remaining activity at 0.08 µM (IDE [2]; insulin ELISA, Cmpd 0.08 uM, Runs 1-3, read-out: Percent Activity (normalized source data)) | remaining activity at 0.4 µM (IDE [2]; insulin ELISA, Cmpd 0.4 uM, Runs 1-3, read-out: Percent Activity (normalized source data)) | remaining activity at 2 µM (IDE [2]; insulin ELISA, Cmpd 2 uM, Runs 1-3, read-out: Percent Activity (normalized source data)) | remaining activity at 10 µM (IDE [2]; insulin ELISA, Cmpd 10 uM, Runs 1-3, read-out: Percent Activity (normalized source data)) | IC50 (IDE [2]) | Ki (IDE [2]) | IC50 (IDE [1]) | Ki (IDE [1])
CC[C@H](C)[C@@H]1NC(=O)[C@H](CO)NC(=O)[C@H](Cc2c[nH]c3ccccc23)NC(=O)[C@H](Cc2c[nH]c3ccccc23)NC(=O)[C@H](CO)NC(=O)[C@@H](NC(=O)[C@H](C)N)CSSC[C@@H](C(=O)NCC(N)=O)NC(=O)[C@H](CC(C)C)NC(=O)[C@H](Cc2c[nH]cn2)NC1=O [C7C-1A] (H-ACSWWSIHLCG-NH2; disulfide 2-10 (inferred)) | YES | 22.5% | 25.1% | 59.5% | 56.6% |  |  |  |  |  |  |  |  |  | 
CC[C@H](C)[C@@H]1NC(=O)[C@H](CO)NC(=O)[C@H](Cc2c[nH]c3ccccc23)NC(=O)[C@H](Cc2c[nH]c3ccccc23)NC(=O)[C@H](CO)NC(=O)[C@@H](NC(=O)[C@H](C)N)CSSC[C@@H](C(=O)NCC(=O)NCC(=O)NCC(=O)O)NC(=O)[C@H](CC(C)C)NC(=O)[C@H](Cc2c[nH]cn2)NC1=O [C7C-1B] (H-ACSWWSIHLCGGG-OH; disulfide 2-10 (inferred)) | YES | 30.4% | 30.3% | 56.8% | 63.2% |  |  |  |  |  |  |  |  |  | 
CC[C@H](C)[C@@H]1NC(=O)[C@H](CO)NC(=O)[C@H](Cc2c[nH]c3ccccc23)NC(=O)[C@H](Cc2c[nH]c3ccccc23)NC(=O)[C@H](CO)NC(=O)[C@@H](NC(=O)[C@H](C)N)CSSC[C@@H](C(=O)NCC(=O)O)NC(=O)[C@H](CC(C)C)NC(=O)[C@H](Cc2c[nH]cn2)NC1=O [C7C-1] (H-ACSWWSIHLCG-OH; disulfide 2-10 (inferred)) | YES | 11.4% |  | 44.2% | 52% | YES | 75% | 93.7% | 66.1% | 73.9% | 51.8% |  |  |  | 
CC(C)C[C@@H]1NC(=O)[C@H](Cc2c[nH]cn2)NC(=O)CNC(=O)[C@H](C)NC(=O)[C@H](CC(N)=O)NC(=O)[C@@H](NC(=O)[C@H](C)N)CSSC[C@@H](C(=O)NCC(N)=O)NC(=O)[C@H](CCC(N)=O)NC(=O)[C@H](CO)NC1=O [C7C-2A] (H-ACNAGHLSQCG-NH2; disulfide 2-10 (inferred)) |  | 94.1% |  | 92.7% | 92.5% |  |  |  |  |  |  |  |  |  | 
CC(C)C[C@@H]1NC(=O)[C@H](Cc2c[nH]cn2)NC(=O)CNC(=O)[C@H](C)NC(=O)[C@H](CC(N)=O)NC(=O)[C@@H](NC(=O)[C@H](C)N)CSSC[C@@H](C(=O)NCC(=O)O)NC(=O)[C@H](CCC(N)=O)NC(=O)[C@H](CO)NC1=O [C7C-2] (H-ACNAGHLSQCG-OH; disulfide 2-10 (inferred)) |  | 54% | 48.4% | 72.8% | 76.4% |  |  |  |  |  |  |  |  |  | 
